Experimental data as given in patent publication US20060229356A1, “Use of indomethacin and derivatives as broad-spectrum antiviral drugs and corresponding pharmaceutical compositions” (priority 2003, published 2006).
pIC50: −log10 of the molar value. Where “and” joins values, the source holds several entries; their conditions need not be identical. Equal values may be shown once.

Assays:
[1] = test system: paramyxovirus (Sendai, SV); experiment: Sendai virus (SV) replication in 37RC cells, hemagglutination assay; assay type: cell-based; settings: for Virus yield: Table 2, SV; for Reduction of virus production: paramyxovirus, each agent given separately
coxsackie virus = settings: cited from earlier work
[2] = test system: Vesicular Stomatitis Virus (VSV); settings: VSV infection; cited from earlier work
rotavirus (SA-11 strain) = experiment: Rotavirus (SA-11) replication in MA104 cells, hemagglutination assay; assay type: cell-based; settings: MA104, 24 h, read-out: IC50 (50% reduction of the virus titer)
[3] = test system: influenza A virus (WSN strain); experiment: Influenza A virus (WSN) replication in A549 cells, hemagglutination assay; assay type: cell-based; settings: for Virus yield: Table 2, WSN; for Decrease of virus production: influenza virus, each agent given separately
herpesviruses = settings: some herpesviruses; cited from earlier work
[4] = test system: A-72 cells infected with CCoV; experiment: Cytoprotective effect in CCoV-infected A-72 cells (FIG. 2); assay type: cell-based, canine; settings: A-72 cells infected with CCoV for 24 hours, 400 microM INDO
Protocol: (§1) FIGS. 1 and 2 show the cytoprotective effect of INDO. Cells were infected as described in example 1.
FIG. 2A: A-72 cells non infected (control); FIG. 2B: A-72 cells infected with CCoV for 24 hours non treated (CCoV); FIG. 2C: A-72 cells infected with CCoV for 24 hours and treated with 400 microM INDO (CCoV+INDO).

virion = experiment: Addition to the virus suspension or during virus adsorption; assay type: cell-based; settings: INDO 5-10 mM, any of the viruses indicated
[5] = test system: coronavirus (CCoV, S-378 strain); experiment: Coronavirus (CCoV) replication in A-72 cells, CPE50% assay; assay type: cell-based
[6] = test system: transcription factor NF-κB; experiment: Activation of NF-κB induced by viral infection; assay type: cell-based; settings: at the active antiviral concentrations, data not shown
[7] = test system: Herpes Simplex type 1 virus (HSV-1); experiment: HSV-1 replication in HEp-2 cells, CPE50% assay; assay type: cell-based, Herpes Simplex virus type 1
[8] = test system: transcription factor HSF (Heat Shock Factor); experiment: Activation of HSF (Heat Shock Factor); assay type: cell-based; settings: at the active antiviral concentrations, data not shown
GRP78/BiP = experiment: Synthesis of stress protein GRP78/BiP; assay type: cell-based
poxvirus = settings: cited from earlier work
[9] = test system: 37RC cells infected with SV; experiment: Cytoprotective effect in SV-infected 37RC cells (FIG. 1); assay type: cell-based, monkey; settings: 37RC cells infected with SV for 24 hours, 400 microM INDO
Protocol: as §1
FIG. 1A: 37RC cells non infected (control); FIG. 1B: 37RC cells infected with SV for 24 hours non treated (SV); FIG. 1C: 37RC cells infected with SV for 24 hours and treated with 400 microM INDO (SV+INDO).

HIV-1 = HIV-1 infection; cited from earlier work

CCCCC/C=C/C=C1/C(=O)C=C[C@@H]1C/C=C\CCCC(=O)O [15dx-PGJ2, 15deoxy-Δ^12-14-PGJ2]
Virus yield ([1]; 15dx-PGJ2 alone 1 μM): 37 % of control
Reduction of virus production [1]: 63%

COc1ccc2c(c1)c(CC(=O)O)c(C)n2C(=O)c1ccc(Cl)cc1 [INDO, Indomethacin]
Concentrations non-toxic for the host cell (host cell): 10 to 800 µM
Antiviral effect (literature) (coxsackie virus): no antiviral effect or to worsen the infection
Antiviral effect (literature) [2]: antiviral effect
pIC50 (rotavirus (SA-11 strain)): > 4.60
Effect at 48 hours after infection [3]: lost its effect
pIC50 ([3]; Influenza A virus, WSN, A549, 24 h, read-out: IC50 (50% reduction of the virus titer)): 3.40
Virus yield ([3]; INDO alone 200 μM): 75 % of control
Virus yield ([3]; INDO alone 400 μM): 67 % of control
Decrease of virus production [3]: approximately 30%
Antiviral effect (literature) (herpesviruses): antiviral effect
Protective effect on cellular damage (cytopathic effect) caused by virus [4]: protected from the destructive cytopathic effect
Effect on virus replication when added to the virus suspension or during virus adsorption (virion): no effect
pIC50 ([5]; A-72, 24 h, read-out: IC50 (50% reduction of the virus titer)): > 4.30
inhibition at 50 µM ([5]; A-72, coronavirus, INDO 50 microM, read-out: Inhibition of virus production as compared to control): > 90%
Inhibition of NF-κB activation induced by the viral infection [6]: does not inhibit
Virus yield ([7]; Table 2, HSV-1, INDO alone 25 μM): 28.2 % of control and 38.1 % of control
Virus yield ([7]; Table 2, HSV-1, INDO alone 100 μM): 9.7 % of control
Activation of HSF (Heat Shock Factor) [8]: does not activate
Synthesis of endoplasmic reticulum stress protein GRP78/BiP (GRP78/BiP): observed the synthesis
pIC50 ([1]; Respirovirus muris, 24 h, read-out: IC50 (50% reduction of the virus titer)): 3.89
Virus yield ([1]; INDO alone 100 μM): 50 % of control and 60 % of control
Reduction of virus production [1]: 40%
Antiviral effect (literature) (poxvirus): no antiviral effect or to worsen the infection
Protective effect on cellular damage (cytopathic effect) caused by virus [9]: protected from the destructive cytopathic effect
Antiviral effect (literature) (HIV-1): antiviral effect

[Cl-].[Cl-].[Zn+2] [ZnCl2]
Virus yield ([3]; ZnCl2 alone 50 μM): 67 % of control
Virus yield ([7]; Table 2, HSV-1, ZnCl2 alone 50 μM): 8.3 % of control
Virus yield ([1]; ZnCl2 alone 50 μM): 60 % of control

NC(=O)c1ncn([C@@H]2O[C@H](CO)[C@@H](O)[C@H]2O)n1 [RIB, ribavirin]
Virus yield ([3]; RIB alone 50 μM): 58 % of control

CCCCC[C@H](O)/C=C/[C@H]1C=CC(=O)[C@@H]1CCCCCCC(=O)O [PGA1]
Virus yield ([7]; Table 2, HSV-1, PGA1 alone 25 μM): 9 % of control

CCCCC[C@H](O)C/C=C1/C(=O)C=C[C@@H]1C/C=C\CCCC(=O)O [Δ^12-PGJ2]
Virus yield ([3]; Δ^12-PGJ2 alone 5 μM): 67 % of control
Decrease of virus production [3]: approximately 30%

Nc1nc2c(ncn2COCCO)c(=O)[nH]1 [ACY, acyclovir]
Virus yield ([7]; Table 2, HSV-1, ACY alone 1 μM): 7.7 % of control
